In patent US12186435B2, “Sol-gel/hydrogel therapeutic delivery system and methods thereof” (ALBERT EINSTEIN COLLEGE OF MEDICINE, priority 2017, dated 2025):
Entries after “also recorded” stand apart in the source; their conditions may differ.

How the values were obtained:
[1] = Release of NACSNO and GSNO from particles into aqueous buffer; format: physicochemical; settings: for release from original rapid gelation platform: deliverable added before condensation, aqueous buffer
[2] = Release of fluorescent labeled lipids from Br1 particles, with or without 3% octyl-TMOS doping; format: physicochemical
Source text: FIG. 13. Effects of doping del with 3% octyl-TMOS on release of lipids. Plots from top to bottom, respectively: Cholesterol-BDP, Chol/3% Octyl, Palmitate-NBD, and Palm/3% Octyl.
Fluorescent labeled cholesterol and palmytic acid were used to show both loading and release. Procyanidine is a potent antioxidant that is being evaluated for use in the treatment of osteoarthritis.
Effects of Doping Del with 3% Octyl-TMOS on Release of Lipids (FIG. 13)
3% octyl doped gel changed cholesterol release(from 80% released down to 55% released), but had no effect on palmitate release.

[3] = Curcumin release from particles into ethanol or methanol; format: physicochemical
Source text: FIG. 2. A comparison of release profiles form curcumin loaded nanoparticles. “Brinker” (Br) is the high-density sol-gel that took 7 days to gel and curcumin added after the gelation is complete. “9d dry” is the original formulation air dried for 9 days. Release is of suspended particles into ethanol or methanol. Plots from top to bottom, respectively: EtOH original, EtOH 9d dry, MeOH Brinker, and EtOH Brinker.
Release from Nanoparticles was Made Via: • the Br(Brinker) method where the curcumin is loaded into the empty Br sol-gel block (slow gelation protocol), • The original hydrogel platform where the curcumin is mixed in the initial pre-condensation mixture which gels much more rapidly than the Br sol-gels, • Curcumin loaded in the original fast gelling platform but the resulting curcumin containing sol-gel is air dried for nine days (to promote enhanced density-decreasing pore size.
The effect of added PEG400 on release rates of NACSNO (SNO derivative of N-acetylcysteine) and curcumin from nanoparticles generated using the new block gel protocol (Universal Drug Delivery Platform). • New protocol in which NACSNO and curcumin are infused into a gel block prepared from TMOS using the standard Brinker method for gelation. Once the gel is loaded with the deliverables, the gel is lyophilized and then milled to produce the loaded nanoparticles. • Four separate gels are prepared for each of the deliverables • One gel has no added PEG whereas the other three have varying amounts of added PEG400. The percentage of added PEG shown in the figures refers to the percentage of PEG added compared to what was added in our original protocol.

[4] = in methanol
[5] = Evans Blue release from particles in water; format: physicochemical; settings: for release from amine (APTS) doped particles: hydrogel doped with amine groups
Protocol: FIGS. 18A-18B. Curcumin (A) and (B) Evans Blue APTS doped gels. The gels were doped with 0.3% APTS. Rate of condensation changed by mM NaOH concentration (75, 60, 30, 12) added prior to condensation step. Increasing gel times for decreasing amount of added NaOH: (2 mins, 30 mins, 15 hours, 1.5 days: 75, 60, 30, 12 mM NaOH). Curcumin release in ethanol; Evans blue release in water. Both plots from top to bottom, respectively, at left side of plots: 75 mM, 60 mM, 30 mM and 12 mM.
Amines are incorporated by mixing hydrolyzed APTS with hydrolyzed TMOS. The resulting sol-gel monolith is loaded with the water soluble dye Evans Blue which has four negatively charged groups.

[6] = gel block doped with octyl group

For `CC(=O)N[C@@H](CSN=O)C(=O)O` [NACSNO, S-nitrosoN-acetylcysteine], the “release from original rapid gelation platform” value [1] was “almost immediate release” and the “effect of octyl group doping on release” value [1, 6] was “slows release”.
With `CC(C)CCC[C@@H](C)[C@H]1CC[C@H]2[C@@H]3CC=C4C[C@@H](O)CC[C@]4(C)[C@H]3CC[C@]12C` [cholesterol] the “cholesterol release, released” value ([2]; 3% octyl doped gel) was 55% and the “cholesterol release, released” value ([2]; gel without octyl doping (Br1)) was 80%.
In the case of `COc1cc(/C=C/C(=O)CC(=O)/C=C/c2ccc(O)c(OC)c2)ccc1O` [curcumin, Curcumin], the “effect of increasing addition of base prior to condensation on release” value ([3]; Br sol-gels doped with APTS) is reported as “increase in release”, the “effect of octyl group doping on release” value [3, 6] is reported as “slows release” and the “effect of APTS on release” value ([3]; slow gel, >1 day to form) is reported as “increased”. For the same compound, the “release compared to the original platform and its air dried version” value ([3]; slow gelling Br protocol, curcumin loaded after gelation) was “dramatic slow down in release” and the “effect of increasing pH in condensation step on release” value ([3]; sol-gel doped with 25% PEG400, release in ethanol) was “increases release”.
In the case of `COc1ccc2cc([C@H](C)C(=O)O)ccc2c1` [Naproxen], the “release from new protocol nanoparticles” value [4] is reported as “slow release”.
With `CCCCCCCCCCCCCCCC(=O)O` [palmitate] the “effect of 3% octyl doping on release” value ([2]; 3% octyl doped gel vs undoped) was “no effect”.
In the case of `N[C@@H](CCC(=O)N[C@@H](CSN=O)C(=O)NCC(=O)O)C(=O)O` [GSNO, S-nitrosothiol-GSH], the “release from original rapid gelation platform” value [1] is reported as “rapid release” and the “stability in original rapid gelation platform” value ([1]; prepared in original rapid gelation platform) is reported as “unstable”.
In the case of `Cc1cc(-c2ccc(/N=N/c3ccc4c(S(=O)(=O)O)cc(S(=O)(=O)O)c(N)c4c3O)c(C)c2)ccc1/N=N/c1ccc2c(S(=O)(=O)O)cc(S(=O)(=O)O)c(N)c2c1O` [Evans Blue], the “effect of increasing addition of base prior to condensation on release” value ([5]; Br sol-gels doped with APTS) is reported as “increase in release”, the “release from amine (APTS) doped particles” value [5] is reported as “slowed by several orders or magnitude; also recorded: substantially slows release” and the “release from amine (APTS) doped particles” value ([5]; listed as Evans blue) is reported as “slows”. For the same compound, the “release from undoped particles” value ([5]; without amine doping, aqueous environment) was “immediate and complete; also recorded: near instantaneous”.
